Assay results as given in patent publication US20230165861A1, “USE FOR PROTECTING OR MITIGATING RADIATION DAMAGE, AND FOR PREVENTING OR TREATING PULMONARY FIBROSIS” (KOREA INSTITUTE OF RADIOLOGICAL & MEDICAL SCIENCES, priority 2017, published 2023).

Columns and labels:
[1] = system: lung tissue of bleomycin-injected mouse; experiment: Inhibition test on tissue damage caused by bleomycin (bleomycin-induced pulmonary fibrosis model); assay type: in vivo; details: 10 mg/kg intraperitoneally one hour before 1.25 U/kg bleomycin into the airway; three weeks after injection; compared to non-treatment group
Method: The tissue of a mouse was fixed with 10% neutral formalin for one day, and a paraffin section was made. In order to remove the paraffin around the tissue, the tissue was allowed to react with a xylene solution and 95%, 90%, and 70% ethanol solutions in sequential order for 5 minutes each, and then immersed in a hematoxylin solution for 1 minute to stain the nuclei and then washed under running water for 10 minutes. Thereafter, the cytoplasm was stained by immersing the tissue in an eosin solution for 30 seconds. Thereafter, the tissue was immersed in 50%, 70%, 90%, and 95% ethanol solutions, and a xylene solution in sequential order, followed by dropping one drop of a mounting solution. Then, the tissue was covered with a cover slide and observed under a microscope (Carl Zeiss Vision). The tissue of a mouse was fixed with 10% neutral formalin for one day, and a paraffin section was made. In order to remove paraffin around the tissue, the tissue was allowed to react with a xylene solution and 95%, 90%, and 70% ethanol solutions in sequential order for 5 minutes each. For the antigen activation of the tissue, the tissue was immersed in a 0.1 M citric acid solution (pH 6.0) and then boiled for 20 minutes. […]

[2] = system: pulmonary vascular endothelial cells of irradiated lung; experiment: Pulmonary fibrosis inhibition test in experimental animal model (trichrome staining of collagen); assay type: in vivo, C57BL/6 mouse; details: 10 mg/kg intraperitoneally one hour before 90 Gy lung irradiation; inner wall of the aorta of lung tissue; compared to irradiation group (IR)
Method: The tissue of a mouse was fixed with 10% neutral formalin for one day, and a paraffin section was made. In order to remove paraffin around the tissue, the tissue was allowed to react with a xylene solution and 95%, 90%, and 70% ethanol solutions in sequential order for 5 minutes each. For the antigen activation of the tissue, the tissue was immersed in a 0.1 M citric acid solution (pH 6.0) and then boiled for 20 minutes. Subsequently, the tissue was allowed to react with a Bouin's solution for 1 minute, Weigert's hematoxylin for 10 minutes, phoshotunstic/phosphomolydic acid for 10 minutes, aniline blue for 5 minutes, and 1% acetic acid for 1 minute in sequential order. Thereafter, a dehydration process was performed, and then the tissue was covered with a cover glass and observed under a microscope (Carl Zeiss Vision). In order to observe whether a phenomenon of pulmonary fibrosis of vascular endothelial cells is shown as the symptom of pulmonary fibrosis occurred after radiotherapy, the site of the lung of a C57BL/6 mouse was topically irradiated with an intensity of 90 Gy. After excising the lung from the mouse, the cross-section of the aorta of the lung tissue was stained by a trichrome staining method in order to identify collagen which is a protein shown upon fibrosis of the pulmonary vascular endothelial cells. […]

[3] = system: γH2AX in irradiated lung tissue; experiment: Inhibition test on DNA damage caused by radiation (γH2AX immunostaining); assay type: in vivo, mouse; details: 10 mg/kg one hour prior to 90 Gy lung irradiation; compared to non-treatment group (IR)
Method: The tissue of a mouse was fixed with 10% neutral formalin for one day, and a paraffin section was made. In order to remove paraffin around the tissue, the tissue was immersed in a xylene solution and 100%, 95%, 90%, and 70% ethanol solutions in sequential order. For the antigen activation of the tissue, the tissue was immersed in a 0.1 M citric acid solution (pH 6.0) and boiled for 30 minutes, and then reacted with 3% hydrogen peroxide for 15 minutes. The tissue was allowed to react with γH2AX (abcam), which was diluted in 1:200 ratio in a PBS solution (including phosphate based saline buffer and 0.1% triton x-100), at 4° C. for 16 hours. After washing the tissue with PBS, a secondary antibody conjugated with biotin was diluted in 1:200 ratio and reacted with the tissue at room temperature for 30 minutes. After reacting the tissue with ABC (Avidin biotin complex) at room temperature for 30 minutes and color-developing 3,3′-DAB (3,3′-diaminobenzidine), the tissue was counterstained with hematoxylin. Subsequently, the tissue was immersed in 50%, 70%, 90%, 95%, and 100% ethanol solutions and a xylene solution in sequential order, followed by dropping one drop of a mounting solution. Then, the tissue was covered with a cover slide and observed under a microscope (Carl Zeiss Vision). […]

[4] = system: vascular wall in the lung tissue of a mouse animal model irradiated with 90 Gy; experiment: Inhibition test on in vivo vascular damage caused by radiation (vascular wall thickness, H&E staining); details: 10 mg/kg intraperitoneally one hour before 90 Gy chest irradiation; two weeks after irradiation; compared to non-treatment group (IR)
Method: The tissue of a mouse was fixed with 10% neutral formalin for one day, and a paraffin section was made. In order to remove the paraffin around the tissue, the tissue was allowed to react with a xylene solution and 95%, 90%, and 70% ethanol solutions in sequential order for 5 minutes each, and then immersed in a hematoxylin solution for 1 minute to stain the nuclei and then washed under running water for 10 minutes. Thereafter, the cytoplasm was stained by immersing the tissue in an eosin solution for 30 seconds. Thereafter, the tissue was immersed in 50%, 70%, 90%, and 95% ethanol solutions, and a xylene solution in sequential order, followed by dropping one drop of a mounting solution. Then, the tissue was covered with a cover slide and observed under a microscope (Carl Zeiss Vision). The lung tissue of a mouse animal model, in which the chest of the mouse was irradiated in a size of 3 mm with an intensity of 90 Gy, was fixed with 10% formalin, and a paraffin section was made. Thereafter, the tissue was stained with hematoxylin and eosin. Upon observing the tissue with this staining method, the cell nucleus is observed in blue and the cytoplasm in pink. One hour before irradiating the mouse animal model, 10 mg/kg of Dacomitinib was administered intraperitoneally. […]

[5] = system: lung tissue of a mouse animal model irradiated with 90 Gy; experiment: Inhibition test on tissue damage caused by radiation (H&E staining of lung tissue); assay type: in vivo; details: 10 mg/kg intraperitoneally one hour before 90 Gy chest irradiation; two weeks after irradiation; compared to non-treatment group (IR)
Method: The tissue of a mouse was fixed with 10% neutral formalin for one day, and a paraffin section was made. In order to remove the paraffin around the tissue, the tissue was allowed to react with a xylene solution and 95%, 90%, and 70% ethanol solutions in sequential order for 5 minutes each, and then immersed in a hematoxylin solution for 1 minute to stain the nuclei and then washed under running water for 10 minutes. Thereafter, the cytoplasm was stained by immersing the tissue in an eosin solution for 30 seconds. Thereafter, the tissue was immersed in 50%, 70%, 90%, and 95% ethanol solutions, and a xylene solution in sequential order, followed by dropping one drop of a mounting solution. Then, the tissue was covered with a cover slide and observed under a microscope (Carl Zeiss Vision). The lung tissue of a mouse animal model, in which the chest of the mouse was irradiated in a size of 3 mm with an intensity of 90 Gy, was fixed with 10% formalin, and a paraffin section was made. Thereafter, tissue inflammatory response and fibrosis were identified by using a hematoxylin and eosin staining method. Upon observing the tissue with this staining method, the cell nucleus is observed in blue and the cytoplasm in pink. One hour before irradiating the mouse animal model, 10 mg/kg of Dacomitinib was administered intraperitoneally. […]

COc1cc2ncnc(Nc3ccc(F)c(Cl)c3)c2cc1NC(=O)/C=C/CN1CCCCC1 [Dacomitinib, (2E)-N-{4-[(3-chloro-4-fluorophenyl)amino]-7-methoxy-6-quinazolinyl}-4-(1-piperidinyl)-2-but enamide]
pathological characteristics such as infiltration of inflammatory cells, fibrous nodules, interstitial thickening [1]: remarkably inhibited | blue sites of collagen (protein associated with pulmonary fibrosis), trichrome staining [2]: remarkably reduced | expression of γH2AX according to the DNA damage [3]: remarkably reduced | thickness of the vascular wall [4]: remarkably reduced | infiltration of the inflammatory cells and the fibrotic matrix around blood vessels [5]: remarkably reduced
